Measurements as given in US11419806B2, “Prebiotic oral care methods using a saccharide” (Colgate-Palmolive Company, priority 2013, dated 2022).

Key:
Experiment in all cases: Twenty-four hour optical density growth in BHI
Assay type in all cases: cell-based
[1] = test system: Actinomyces viscosus; conditions: A viscosus
Experimental: (§1) The extent of growth of the tested bacteria in response to selected saccharides (myo-inositol, D-lactitol, D-turanose and N-acetyl-D-mannosamine) was investigated by setting up growth curves in a nutritionally rich medium (brain heart infusion broth (BHI), Oxoid), over 24 hours. Late exponential growth phase liquid cultures were prepared by transferring the respective bacterium from blood agar plates to BHI and overnight incubation at 37° C. in an anaerobic atmosphere for A. viscosus, V. parvula, F. nucleatum, P. gingivalis, P. intermedia, T. forsythia, A. naeslundii, and C. sputigena, and in a 5% CO2 environment for S. salivarius, S. sanguinis, S. mitis, A. actinomycetemcomitans, S. mutans, S. sobrinus and S. gordonii. Overnight cultures were transferred to BHI and adjusted to a concentration of 1×10^7 CFU/ml (colony forming units per ml) by measuring the optical density at 600 nm (OD600) (BioRad SmartSpec 3000). For each strain, 200 μl of the bacterial suspension was added to a 96-well plate containing 20 μl of the respective saccharides. Final concentrations of the saccharides were set to 5, 10, 20 and 25 μmol/ml. […] Plates were incubated as previously described.
(§2) For each combination of bacterium/saccharide, and for each of their respective controls (i.e. the particular bacterium in the nutritionally rich medium with no saccharide), the optical density was measured at 630 nm (OD630) at 0 h and 24 h (Thermo Scientific Multiskan Ascent). Additionally, the OD630 for combinations of bacterium/saccharides grown in a 5% CO2 environment were also measured every hour between 0 h and 9 h.
(§3) The experiment was carried out on three different days (thus providing 3 biological replicas) and on each day the experiment was carried out in quadruple (thus providing 4 technical replicas) for each combination of bacterium with saccharide and for each control. For each day and for each combination, the average (mean) of the values obtained (as detailed above) for the four technical replicas was calculated to provide a single value for each combination on each day. The values shown in Tables 5a,b to 6a,b, below, are the average (mean) of the three single values obtained for each combination of bacterium with saccharide.

[2] = test system: Prevotella intermedia; conditions: P intermedia
Experimental: as §1, §2, §3

[3] = test system: Streptococcus mutans; conditions: for extent of growth: maximal OD630 over 24 hr divided by maximal OD of control (control = 1): S mutans
Experimental: as §1, §2, §3

[4] = test system: Veillonella parvula; conditions: V parvula
Experimental: as §1, §2, §3

[5] = test system: Tannerella forsythia; conditions: T forsythia
Experimental: as §1, §2, §3

[6] = test system: Streptococcus mitis; conditions: S mitis
Experimental: as §1, §2, §3

[7] = test system: Capnocytophaga sputigena; conditions: C sputigena
Experimental: as §1, §2, §3

[8] = test system: S. sanguinis
Experimental: as §1, §2, §3

[9] = test system: Streptococcus gordonii; conditions: S gordonii
Experimental: as §1, §2, §3

[10] = test system: Actinomyces naeslundii; conditions: A naeslundii
Experimental: as §1, §2, §3

[11] = test system: Aggregatibacter actinomycetemcomitans; conditions: A actinomycetemcomitans
Experimental: as §1, §2, §3

[12] = test system: Streptococcus salivarius; conditions: S salivarius
Experimental: as §1, §2, §3

[13] = test system: Porphyromonas gingivalis; conditions: P gingivalis
Experimental: as §1, §2, §3

[14] = test system: Fusobacterium nucleatum; conditions: F nucleatum
Experimental: as §1, §2, §3

[15] = test system: Streptococcus sobrinus; conditions: S sobrinus
Experimental: as §1, §2, §3

OC[C@@H](O)[C@@H](O[C@H]1O[C@H](CO)[C@H](O)[C@H](O)[C@H]1O)[C@H](O)[C@@H](O)CO [D-Lactitol, 4-O-α-D-galactopyranosyl-D-glucitol]
extent of growth: maximal OD630 over 24 hr divided by maximal OD of control (control = 1) ([1]; 5 μmol/ml): 0.8614
extent of growth: maximal OD630 over 24 hr divided by maximal OD of control (control = 1) ([1]; 10 μmol/ml): 0.9554
extent of growth: maximal OD630 over 24 hr divided by maximal OD of control (control = 1) ([1]; 20 μmol/ml): 1.0275
extent of growth: maximal OD630 over 24 hr divided by maximal OD of control (control = 1) ([1]; 25 μmol/ml): 1.0300
extent of growth: maximal OD630 over 24 hr divided by maximal OD of control (control = 1) ([2]; 5 μmol/ml): 0.9178
extent of growth: maximal OD630 over 24 hr divided by maximal OD of control (control = 1) ([2]; 10 μmol/ml): 0.9210
extent of growth: maximal OD630 over 24 hr divided by maximal OD of control (control = 1) ([2]; 20 μmol/ml): 0.9185
extent of growth: maximal OD630 over 24 hr divided by maximal OD of control (control = 1) ([2]; 25 μmol/ml): 0.9036
stimulation of growth of S. mutans ([3]; Example 2): does not stimulate growth
extent of growth: maximal OD630 over 24 hr divided by maximal OD of control (control = 1) ([3]; 5 μmol/ml): 0.9466
extent of growth: maximal OD630 over 24 hr divided by maximal OD of control (control = 1) ([3]; 10 μmol/ml): 0.9230
extent of growth: maximal OD630 over 24 hr divided by maximal OD of control (control = 1) ([3]; 20 μmol/ml): 0.9036
extent of growth: maximal OD630 over 24 hr divided by maximal OD of control (control = 1) ([3]; 25 μmol/ml): 0.9149
extent of growth: maximal OD630 over 24 hr divided by maximal OD of control (control = 1) ([4]; 5 μmol/ml): 0.8722
extent of growth: maximal OD630 over 24 hr divided by maximal OD of control (control = 1) ([4]; 10 μmol/ml): 0.8854
extent of growth: maximal OD630 over 24 hr divided by maximal OD of control (control = 1) ([4]; 20 μmol/ml): 0.8909
extent of growth: maximal OD630 over 24 hr divided by maximal OD of control (control = 1) ([4]; 25 μmol/ml): 0.9054
extent of growth: maximal OD630 over 24 hr divided by maximal OD of control (control = 1) ([5]; 5 μmol/ml): 0.9351
extent of growth: maximal OD630 over 24 hr divided by maximal OD of control (control = 1) ([5]; 10 μmol/ml): 0.9434
extent of growth: maximal OD630 over 24 hr divided by maximal OD of control (control = 1) ([5]; 20 μmol/ml): 0.9426
extent of growth: maximal OD630 over 24 hr divided by maximal OD of control (control = 1) ([5]; 25 μmol/ml): 0.9367
extent of growth: maximal OD630 over 24 hr divided by maximal OD of control (control = 1) ([6]; 5 μmol/ml): 0.8694
extent of growth: maximal OD630 over 24 hr divided by maximal OD of control (control = 1) ([6]; 10 μmol/ml): 0.9020
extent of growth: maximal OD630 over 24 hr divided by maximal OD of control (control = 1) ([6]; 20 μmol/ml): 0.9151
extent of growth: maximal OD630 over 24 hr divided by maximal OD of control (control = 1) ([6]; 25 μmol/ml): 0.8839
extent of growth: maximal OD630 over 24 hr divided by maximal OD of control (control = 1) ([7]; 5 μmol/ml): 0.8996
extent of growth: maximal OD630 over 24 hr divided by maximal OD of control (control = 1) ([7]; 10 μmol/ml): 0.8742
extent of growth: maximal OD630 over 24 hr divided by maximal OD of control (control = 1) ([7]; 20 μmol/ml): 0.8416
extent of growth: maximal OD630 over 24 hr divided by maximal OD of control (control = 1) ([7]; 25 μmol/ml): 0.8337
extent of growth: maximal OD630 over 24 hr divided by maximal OD of control (control = 1) ([8]; 5 μmol/ml): 0.8901
extent of growth: maximal OD630 over 24 hr divided by maximal OD of control (control = 1) ([8]; 10 μmol/ml): 0.9323
extent of growth: maximal OD630 over 24 hr divided by maximal OD of control (control = 1) ([8]; 20 μmol/ml): 0.9356
extent of growth: maximal OD630 over 24 hr divided by maximal OD of control (control = 1) ([8]; 25 μmol/ml): 0.9393
extent of growth: maximal OD630 over 24 hr divided by maximal OD of control (control = 1) ([9]; 5 μmol/ml): 0.9828
extent of growth: maximal OD630 over 24 hr divided by maximal OD of control (control = 1) ([9]; 10 μmol/ml): 0.9945
extent of growth: maximal OD630 over 24 hr divided by maximal OD of control (control = 1) ([9]; 20 μmol/ml): 0.9931
extent of growth: maximal OD630 over 24 hr divided by maximal OD of control (control = 1) ([9]; 25 μmol/ml): 1.0101
extent of growth: maximal OD630 over 24 hr divided by maximal OD of control (control = 1) ([10]; 5 μmol/ml): 1.0156
extent of growth: maximal OD630 over 24 hr divided by maximal OD of control (control = 1) ([10]; 10 μmol/ml): 1.0334
extent of growth: maximal OD630 over 24 hr divided by maximal OD of control (control = 1) ([10]; 20 μmol/ml): 1.0688
extent of growth: maximal OD630 over 24 hr divided by maximal OD of control (control = 1) ([10]; 25 μmol/ml): 1.0686
extent of growth: maximal OD630 over 24 hr divided by maximal OD of control (control = 1) ([11]; 5 μmol/ml): 0.7044
extent of growth: maximal OD630 over 24 hr divided by maximal OD of control (control = 1) ([11]; 10 μmol/ml): 0.7052
extent of growth: maximal OD630 over 24 hr divided by maximal OD of control (control = 1) ([11]; 20 μmol/ml): 0.6952
extent of growth: maximal OD630 over 24 hr divided by maximal OD of control (control = 1) ([11]; 25 μmol/ml): 0.7095
extent of growth: maximal OD630 over 24 hr divided by maximal OD of control (control = 1) ([12]; 5 μmol/ml): 1.1349
extent of growth: maximal OD630 over 24 hr divided by maximal OD of control (control = 1) ([12]; 10 μmol/ml): 1.3489
extent of growth: maximal OD630 over 24 hr divided by maximal OD of control (control = 1) ([12]; 20 μmol/ml): 1.3431
extent of growth: maximal OD630 over 24 hr divided by maximal OD of control (control = 1) ([12]; 25 μmol/ml): 1.3159
extent of growth: maximal OD630 over 24 hr divided by maximal OD of control (control = 1) ([13]; 5 μmol/ml): 0.9615
extent of growth: maximal OD630 over 24 hr divided by maximal OD of control (control = 1) ([13]; 10 μmol/ml): 0.9989
extent of growth: maximal OD630 over 24 hr divided by maximal OD of control (control = 1) ([13]; 20 μmol/ml): 0.9706
extent of growth: maximal OD630 over 24 hr divided by maximal OD of control (control = 1) ([13]; 25 μmol/ml): 1.0115
extent of growth: maximal OD630 over 24 hr divided by maximal OD of control (control = 1) ([14]; 5 μmol/ml): 0.9876
extent of growth: maximal OD630 over 24 hr divided by maximal OD of control (control = 1) ([14]; 10 μmol/ml): 0.9482
extent of growth: maximal OD630 over 24 hr divided by maximal OD of control (control = 1) ([14]; 20 μmol/ml): 0.9034
extent of growth: maximal OD630 over 24 hr divided by maximal OD of control (control = 1) ([14]; 25 μmol/ml): 0.8805
extent of growth: maximal OD630 over 24 hr divided by maximal OD of control (control = 1) ([15]; 5 μmol/ml): 1.0650
extent of growth: maximal OD630 over 24 hr divided by maximal OD of control (control = 1) ([15]; 10 μmol/ml): 1.0189
extent of growth: maximal OD630 over 24 hr divided by maximal OD of control (control = 1) ([15]; 20 μmol/ml): 1.0335
extent of growth: maximal OD630 over 24 hr divided by maximal OD of control (control = 1) ([15]; 25 μmol/ml): 1.0163
